Test results published in patent US9624269B2, “Peptide inhibitors of BACE1” (GENENTECH, INC., priority 2011, dated 2017).

Legend:
Experiment in all cases: Biotinylated BACE020 peptide binding ELISA
[1] = target: T1, human BACE1 ECD WT (Homo sapiens, UniProt P56817)
T1 construct: extracellular domain (ECD) (residues 22-457) and a C-terminal His8 tag; made in house; host or cells: Chinese hamster ovary cells (transient)
Source text: (§1) Human BACE1 mutants were made in a pRK vector containing the BACE 1 signal peptide followed by its extracellular domain (ECD) (residues 22-457) and a C-terminal His8 tag (SEQ ID NO: 54). Mutations were made using the appropriate oligonucleotide using a QuikChange® II XL Site-Directed Mutagenesis kit (Agilent Technologies Stratagene Products, La Jolla, Calif.) and confirmed by DNA sequencing. Proteins were expressed transiently using Chinese hamster ovary cells growing in 1-liter fermenters and cultures were harvested after 2 weeks. Following centrifugation, mutant proteins from the medium were purified to homogeneity (>95% purity) by chromatography on Ni-NTA agarose (Qiagen, Valencia, Calif.). After washing with PBS containing 10 mM imidazole, proteins were eluted with PBS containing 200 mM imidazole and the eluate was pooled, concentrated using a Vivaspin 20 (Sartorius-stedim, Goettingen, Germany) and applied to a Superdex 200 10/300 GL column (GE Healthcare Bio-Sciences AB, Uppsala, Sweden) equilibrated in 20 mM HEPES pH 7.2, 150 mM NaCl. Protein peaks were collected, concentrated and protein concentration determined by A280.
(§2) Binding of biotinylated BACE020 to recombinant protein was determined by a 96-well plate assay. Maxisorp microtiter plates (Nalge Nunc International, Rochester, N.Y.) were coated overnight at 4° C. with 2 μg/ml BACE 1 mutant in 50 mM carbonate, pH 9.6. The coated wells were washed with buffer (PBS, 0.05% Polysorbate 20) and blocked with assay buffer (PBS, pH 7.4, 0.5% BSA, 0.05% Tween 20, 15 ppm Proclin) for 1 h at room temperature with gentle shaking. After blocking, various concentrations of C-terminal biotin tagged BACE020 peptide with a polyethylene glycol (PEG) spacer (Ac-[…]-(PEG)3-biotin (SEQ ID NO: 16); Ac-[…]-CONH—CH2—(CH2—CH2—O—)3—(CH2)3—NH-biotin (SEQ ID NO: 16)) diluted in assay buffer were added and plates were incubated for 1 h with gentle shaking at room temperature. After washing, the amount of peptide bound to the plate was detected by the addition of Streptavidin-Horseradish Peroxidase Conjugate (GE Healthcare, Piscataway, N.J.) followed by the addition of TMB/H2O2 substrate (KPL, Gaithersburg, Md.). The reaction was quenched with 1 M phosphoric acid and the A450 measured on a Molecular Devices SpectraMax Plus384 microplate reader. Concentrations to give half maximal effective concentration (EC50) were determined using a 4-parameter non-linear regression curve-fitting program with Kaleidagraph (Synergy Software, Reading, Pa.). […] Concentrations to give half maximal inhibition concentration (IC50) were determined using a 4-parameter non-linear regression curve-fitting program with Kaleidagraph.
(§3) The ability of biotinylated BACE020 to bind to BACE1 and mutants was determined using an ELISA assay. The fold decrease in binding affinity was determined as the relative EC50 values of EC50 (mut)/EC50 (WT), which are listed in Table 3.

[2] = target: T2, human BACE1 ECD mutant 1I79A (118) (Homo sapiens, UniProt P56817, I179A)
T2 construct: extracellular domain (ECD) (residues 22-457) and a C-terminal His8 tag; made in house; host or cells: Chinese hamster ovary cells (transient)
Source text: as §1, §2, §3

[3] = target: T3, human BACE1 ECD mutant D289A (228) (Homo sapiens, UniProt P56817, D289A)
T3 construct: extracellular domain (ECD) (residues 22-457) and a C-terminal His8 tag; made in house; host or cells: Chinese hamster ovary cells (transient)
Source text: as §1, §2, §3

[4] = target: T4, human BACE1 ECD mutant D93A (32) (Homo sapiens, UniProt P56817, D93A)
T4 construct: extracellular domain (ECD) (residues 22-457) and a C-terminal His8 tag; made in house; host or cells: Chinese hamster ovary cells (transient)
Source text: as §1, §2, §3

[5] = target: T5, human BACE1 ECD mutant F169A (108) (Homo sapiens, UniProt P56817, F169A)
T5 construct: extracellular domain (ECD) (residues 22-457) and a C-terminal His8 tag; made in house; host or cells: Chinese hamster ovary cells (transient)
Source text: as §1, §2, §3

[6] = target: T6, human BACE1 ECD mutant G291A (230) (Homo sapiens, UniProt P56817, G291A)
T6 construct: its extracellular domain (ECD) (residues 22-457) and a C-terminal His8 tag; His8 (C); made in house; host or cells: Chinese hamster ovary cells (transient, secreted)
Source text: as §1, §2, §3

[7] = target: T7, human BACE1 ECD mutant G72A (11) (Homo sapiens, UniProt P56817, G72A)
T7 construct: extracellular domain (ECD) (residues 22-457) and a C-terminal His8 tag; made in house; host or cells: Chinese hamster ovary cells (transient)
Source text: as §1, §2, §3

[8] = target: T8, human BACE1 ECD mutant G74A (13) (Homo sapiens, UniProt P56817, G74A)
T8 construct: extracellular domain (ECD) (residues 22-457) and a C-terminal His8 tag; made in house; host or cells: Chinese hamster ovary cells (transient)
Source text: as §1, §2, §3

[9] = target: T9, human BACE1 ECD mutant I171A (110) (Homo sapiens, UniProt P56817, I171A)
T9 construct: extracellular domain (ECD) (residues 22-457) and a C-terminal His8 tag; made in house; host or cells: Chinese hamster ovary cells (transient)
Source text: as §1, §2, §3

[10] = target: T10, human BACE1 ECD mutant K168A (107) (Homo sapiens, UniProt P56817, K168A)
T10 construct: extracellular domain (ECD) (residues 22-457) and a C-terminal His8 tag; made in house; host or cells: Chinese hamster ovary cells (transient)
Source text: as §1, §2, §3

[11] = target: T11, human BACE1 ECD mutant K285A (224) (Homo sapiens, UniProt P56817, K285A)
T11 construct: extracellular domain (ECD) (residues 22-457) and a C-terminal His8 tag; made in house; host or cells: Chinese hamster ovary cells (transient)
Source text: as §1, §2, §3

[12] = target: T12, human BACE1 ECD mutant K382A (321) (Homo sapiens, UniProt P56817, K382A)
T12 construct: its extracellular domain (ECD) (residues 22-457) and a C-terminal His8 tag; His8 (C); made in house; host or cells: Chinese hamster ovary cells (transient, secreted)
Source text: as §1, §2, §3

[13] = target: T13, human BACE1 ECD mutant L91A (30) (Homo sapiens, UniProt P56817, L91A)
T13 construct: extracellular domain (ECD) (residues 22-457) and a C-terminal His8 tag; made in house; host or cells: Chinese hamster ovary cells (transient)
Source text: as §1, §2, §3

[14] = target: T14, human BACE1 ECD mutant N294A (233) (Homo sapiens, UniProt P56817, N294A)
T14 construct: its extracellular domain (ECD) (residues 22-457) and a C-terminal His8 tag; His8 (C); made in house; host or cells: Chinese hamster ovary cells (transient, secreted)
Source text: as §1, §2, §3

[15] = target: T15, human BACE1 ECD mutant Q134A (73) (Homo sapiens, UniProt P56817, Q134A)
T15 construct: extracellular domain (ECD) (residues 22-457) and a C-terminal His8 tag; made in house; host or cells: Chinese hamster ovary cells (transient)
Source text: as §1, §2, §3

[16] = target: T16, human BACE1 ECD mutant Q73A (12) (Homo sapiens, UniProt P56817, Q73A)
T16 construct: extracellular domain (ECD) (residues 22-457) and a C-terminal His8 tag; made in house; host or cells: Chinese hamster ovary cells (transient)
Source text: as §1, §2, §3

[17] = target: T17, human BACE1 ECD mutant R189A (128) (Homo sapiens, UniProt P56817, R189A)
T17 construct: extracellular domain (ECD) (residues 22-457) and a C-terminal His8 tag; made in house; host or cells: Chinese hamster ovary cells (transient)
Source text: as §1, §2, §3

[18] = target: T18, human BACE1 ECD mutant R296A (235) (Homo sapiens, UniProt P56817, R296A)
T18 construct: its extracellular domain (ECD) (residues 22-457) and a C-terminal His8 tag; His8 (C); made in house; host or cells: Chinese hamster ovary cells (transient, secreted)
Source text: as §1, §2, §3

[19] = target: T19, human BACE1 ECD mutant S96A (35) (Homo sapiens, UniProt P56817, S96A)
T19 construct: extracellular domain (ECD) (residues 22-457) and a C-terminal His8 tag; made in house; host or cells: Chinese hamster ovary cells (transient)
Source text: as §1, §2, §3

[20] = target: T20, human BACE1 ECD mutant T133A (72) (Homo sapiens, UniProt P56817, T133A)
T20 construct: extracellular domain (ECD) (residues 22-457) and a C-terminal His8 tag; made in house; host or cells: Chinese hamster ovary cells (transient)
Source text: as §1, §2, §3

[21] = target: T21, human BACE1 ECD mutant T292A (231) (Homo sapiens, UniProt P56817, T292A)
T21 construct: its extracellular domain (ECD) (residues 22-457) and a C-terminal His8 tag; His8 (C); made in house; host or cells: Chinese hamster ovary cells (transient, secreted)
Source text: as §1, §2, §3

[22] = target: T22, human BACE1 ECD mutant T293A (232) (Homo sapiens, UniProt P56817, T293A)
T22 construct: its extracellular domain (ECD) (residues 22-457) and a C-terminal His8 tag; His8 (C); made in house; host or cells: Chinese hamster ovary cells (transient, secreted)
Source text: as §1, §2, §3

[23] = target: T23, human BACE1 ECD mutant T390A (329) (Homo sapiens, UniProt P56817, T390A)
T23 construct: its extracellular domain (ECD) (residues 22-457) and a C-terminal His8 tag; His8 (C); made in house; host or cells: Chinese hamster ovary cells (transient, secreted)
Source text: as §1, §2, §3

[24] = target: T24, human BACE1 ECD mutant W176A (115) (Homo sapiens, UniProt P56817, W176A)
T24 construct: extracellular domain (ECD) (residues 22-457) and a C-terminal His8 tag; made in house; host or cells: Chinese hamster ovary cells (transient)
Source text: as §1, §2, §3

[25] = target: T25, human BACE1 ECD mutant Y132A (71) (Homo sapiens, UniProt P56817, Y132A)
T25 construct: extracellular domain (ECD) (residues 22-457) and a C-terminal His8 tag; made in house; host or cells: Chinese hamster ovary cells (transient)
Source text: as §1, §2, §3

T8 sequence (P56817 22-457 G74A): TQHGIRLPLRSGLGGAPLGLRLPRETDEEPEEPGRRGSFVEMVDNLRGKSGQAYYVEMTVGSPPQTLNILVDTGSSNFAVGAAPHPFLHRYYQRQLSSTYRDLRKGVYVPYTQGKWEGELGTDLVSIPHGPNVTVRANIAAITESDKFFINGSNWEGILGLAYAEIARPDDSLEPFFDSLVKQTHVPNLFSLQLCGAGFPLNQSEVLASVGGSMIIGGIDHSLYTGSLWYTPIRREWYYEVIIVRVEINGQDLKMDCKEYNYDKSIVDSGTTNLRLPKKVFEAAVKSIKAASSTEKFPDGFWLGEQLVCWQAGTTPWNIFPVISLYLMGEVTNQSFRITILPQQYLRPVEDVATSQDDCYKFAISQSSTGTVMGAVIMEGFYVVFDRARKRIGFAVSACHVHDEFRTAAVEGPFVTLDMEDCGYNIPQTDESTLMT
T2 sequence (P56817 22-457 I179A): as the sequence (P56817 22-457 G74A) above, with A53G, I158A counted along it
T13 sequence (P56817 22-457 L91A): as the sequence (P56817 22-457 G74A) above, with A53G, L70A counted along it
T9 sequence (P56817 22-457 I171A): as the sequence (P56817 22-457 G74A) above, with A53G, I150A counted along it
T22 sequence (P56817 22-457 T293A): as the sequence (P56817 22-457 G74A) above, with A53G, T272A counted along it
T19 sequence (P56817 22-457 S96A): as the sequence (P56817 22-457 G74A) above, with A53G, S75A counted along it
T5 sequence (P56817 22-457 F169A): as the sequence (P56817 22-457 G74A) above, with A53G, F148A counted along it
T17 sequence (P56817 22-457 R189A): as the sequence (P56817 22-457 G74A) above, with A53G, R168A counted along it
T16 sequence (P56817 22-457 Q73A): as the sequence (P56817 22-457 G74A) above, with Q52A, A53G counted along it
T15 sequence (P56817 22-457 Q134A): as the sequence (P56817 22-457 G74A) above, with A53G, Q113A counted along it
T14 sequence (P56817 22-457 N294A): as the sequence (P56817 22-457 G74A) above, with A53G, N273A counted along it
T18 sequence (P56817 22-457 R296A): as the sequence (P56817 22-457 G74A) above, with A53G, R275A counted along it
T25 sequence (P56817 22-457 Y132A): as the sequence (P56817 22-457 G74A) above, with A53G, Y111A counted along it
T12 sequence (P56817 22-457 K382A): as the sequence (P56817 22-457 G74A) above, with A53G, K361A counted along it
T10 sequence (P56817 22-457 K168A): as the sequence (P56817 22-457 G74A) above, with A53G, K147A counted along it
T6 sequence (P56817 22-457 G291A): as the sequence (P56817 22-457 G74A) above, with A53G, G270A counted along it
T20 sequence (P56817 22-457 T133A): as the sequence (P56817 22-457 G74A) above, with A53G, T112A counted along it
T4 sequence (P56817 22-457 D93A): as the sequence (P56817 22-457 G74A) above, with A53G, D72A counted along it
T24 sequence (P56817 22-457 W176A): as the sequence (P56817 22-457 G74A) above, with A53G, W155A counted along it
T3 sequence (P56817 22-457 D289A): as the sequence (P56817 22-457 G74A) above, with A53G, D268A counted along it
T1 sequence (P56817 22-457): as the sequence (P56817 22-457 G74A) above, with A53G counted along it
T11 sequence (P56817 22-457 K285A): as the sequence (P56817 22-457 G74A) above, with A53G, K264A counted along it
T21 sequence (P56817 22-457 T292A): as the sequence (P56817 22-457 G74A) above, with A53G, T271A counted along it
T23 sequence (P56817 22-457 T390A): as the sequence (P56817 22-457 G74A) above, with A53G, T369A counted along it
T7 sequence (P56817 22-457 G72A): as the sequence (P56817 22-457 G74A) above, with G51A, A53G counted along it

In the case of “Ac-NEESMYCRLLGIGCG-(PEG)3-biotin [Biotinylated BACE020]”, the “Fold Decrease in Binding EC50 (Mut)/EC50 (WT)” value (“Fold Decrease in Binding EC50” below) [1] was 1.0, the “Fold Decrease in Binding EC50” value [2] was 2.6 and the “Fold Decrease in Binding EC50” value [3] was 2210.0. For the same substance, the “Fold Decrease in Binding EC50” value [4] was 568.0, the “Fold Decrease in Binding EC50” value [5] was 1.9 and the “Fold Decrease in Binding EC50” value [6] was 0.8. The “Fold Decrease in Binding EC50” value [7] was 6.5, the “Fold Decrease in Binding EC50” value [8] was 488.0 and the “Fold Decrease in Binding EC50” value [9] was 1020.0. For the same substance, the “Fold Decrease in Binding EC50” value [10] was 1.0, the “Fold Decrease in Binding EC50” value [11] was 4.0 and the “Fold Decrease in Binding EC50” value [12] was 4.5. For the same substance, the “Fold Decrease in Binding EC50” value [13] was 1.0, the “Fold Decrease in Binding EC50” value [14] was 2.4 and the “Fold Decrease in Binding EC50” value [15] was 1990.0. The “Fold Decrease in Binding EC50” value [16] was 1.7, the “Fold Decrease in Binding EC50” value [17] was 2.7 and the “Fold Decrease in Binding EC50” value [18] was 70.9. The “Fold Decrease in Binding EC50” value [19] was 1.0, the “Fold Decrease in Binding EC50” value [20] was 1.1 and the “Fold Decrease in Binding EC50” value [21] was 73.6. The “Fold Decrease in Binding EC50” value [22] was 349.0, the “Fold Decrease in Binding EC50” value [23] was 0.9 and the “Fold Decrease in Binding EC50” value [24] was 690.0. For the same substance, the “Fold Decrease in Binding EC50” value [25] was 72.2.
